“And” between values parts separate entries of the source, which are not always exact repeats. Equal values may be shown once.
Columns and labels:
mice [1] = experiment: THC-induced increase in food intake (fasting-refeeding); format: in vivo
mice [2] = experiment: Precipitated withdrawal in THC-dependent mice; format: in vivo; conditions: highest dose tested […]
Procedure: From day 1 to days 4–5, mice were injected i.p. with vehicle or THC (20 mg kg^−1) twice per day. On the last day of treatment, mice in the THC group received rimonabant or AEF0117. All other animals received the respective vehicle. […] For the measure of precipitated withdrawal, mice were placed in a novel home cage, and a video camera was positioned in front of each cage to record behavior. Scoring was performed for 1 min every 5-min period. Two withdrawal signs were analyzed—paw tremors and head shaking—because they are the most common signs of THC withdrawal observed in mice[14].

Adenosine A2A = Adenosine A2A (Homo sapiens, UniProt P29274); experiment: Eurofins binding screen
Adrenergic alpha1 = experiment: Eurofins binding screen; conditions: 10 µM
Adrenergic beta2 = Adrenergic beta2 (Homo sapiens, UniProt P07550); experiment: Eurofins binding screen
Adrenergic beta2, sequence (P07550 whole entry): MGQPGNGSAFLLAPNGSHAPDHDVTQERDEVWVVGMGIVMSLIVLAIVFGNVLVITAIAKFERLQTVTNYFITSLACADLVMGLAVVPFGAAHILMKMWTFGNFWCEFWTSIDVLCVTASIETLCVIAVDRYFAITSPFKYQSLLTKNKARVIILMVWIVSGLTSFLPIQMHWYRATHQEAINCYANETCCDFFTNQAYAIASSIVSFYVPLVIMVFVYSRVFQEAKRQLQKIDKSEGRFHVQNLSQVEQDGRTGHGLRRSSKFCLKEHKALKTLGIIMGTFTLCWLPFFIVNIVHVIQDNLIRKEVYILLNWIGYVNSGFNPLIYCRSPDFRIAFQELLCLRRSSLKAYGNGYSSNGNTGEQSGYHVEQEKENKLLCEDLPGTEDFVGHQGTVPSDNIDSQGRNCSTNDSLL

Adrenergic beta1 = Adrenergic beta1 (Homo sapiens, UniProt P08588); experiment: Eurofins binding screen
Adrenergic beta1, sequence (P08588 whole entry): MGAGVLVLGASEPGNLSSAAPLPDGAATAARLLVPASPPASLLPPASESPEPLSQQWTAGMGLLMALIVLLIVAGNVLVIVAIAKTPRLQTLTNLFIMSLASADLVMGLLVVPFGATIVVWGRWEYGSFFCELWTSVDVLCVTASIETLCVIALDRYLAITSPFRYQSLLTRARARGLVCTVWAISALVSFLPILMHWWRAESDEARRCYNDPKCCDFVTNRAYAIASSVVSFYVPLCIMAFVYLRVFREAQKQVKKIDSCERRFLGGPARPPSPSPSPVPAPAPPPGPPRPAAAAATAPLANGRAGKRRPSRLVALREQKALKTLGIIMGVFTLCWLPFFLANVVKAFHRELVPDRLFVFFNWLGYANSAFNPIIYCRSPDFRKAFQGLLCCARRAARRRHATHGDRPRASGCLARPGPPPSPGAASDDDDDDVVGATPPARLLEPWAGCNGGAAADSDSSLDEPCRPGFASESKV

Angiotensin-II AT2 = Angiotensin-II AT2 (Homo sapiens, UniProt P50052); experiment: Eurofins binding screen
Bombesin BB = experiment: Eurofins binding screen; conditions: 10 µM
Cannabinoid CB1 = Cannabinoid CB1 (Homo sapiens, UniProt P21554); experiment: Eurofins binding screen
Cannabinoid CB1, sequence (P21554 whole entry): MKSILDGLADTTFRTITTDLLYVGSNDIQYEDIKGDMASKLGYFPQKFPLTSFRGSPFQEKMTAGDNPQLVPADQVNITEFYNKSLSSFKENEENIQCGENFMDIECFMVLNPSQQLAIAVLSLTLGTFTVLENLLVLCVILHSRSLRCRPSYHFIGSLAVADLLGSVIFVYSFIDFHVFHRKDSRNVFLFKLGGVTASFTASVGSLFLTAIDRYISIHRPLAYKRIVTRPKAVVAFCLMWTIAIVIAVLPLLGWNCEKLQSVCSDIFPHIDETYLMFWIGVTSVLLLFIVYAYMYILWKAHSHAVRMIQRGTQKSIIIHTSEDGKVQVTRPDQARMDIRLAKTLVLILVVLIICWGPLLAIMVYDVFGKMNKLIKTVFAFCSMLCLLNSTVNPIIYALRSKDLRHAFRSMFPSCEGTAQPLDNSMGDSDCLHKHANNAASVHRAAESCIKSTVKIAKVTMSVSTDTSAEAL

Cannabinoid CB2 = Cannabinoid CB2 (Homo sapiens, UniProt P34972); experiment: Eurofins binding screen
Chemokines CCR1 = Chemokines CCR1 (Homo sapiens, UniProt P32246); experiment: Eurofins binding screen
Chemokines CCR1, sequence (P32246 whole entry): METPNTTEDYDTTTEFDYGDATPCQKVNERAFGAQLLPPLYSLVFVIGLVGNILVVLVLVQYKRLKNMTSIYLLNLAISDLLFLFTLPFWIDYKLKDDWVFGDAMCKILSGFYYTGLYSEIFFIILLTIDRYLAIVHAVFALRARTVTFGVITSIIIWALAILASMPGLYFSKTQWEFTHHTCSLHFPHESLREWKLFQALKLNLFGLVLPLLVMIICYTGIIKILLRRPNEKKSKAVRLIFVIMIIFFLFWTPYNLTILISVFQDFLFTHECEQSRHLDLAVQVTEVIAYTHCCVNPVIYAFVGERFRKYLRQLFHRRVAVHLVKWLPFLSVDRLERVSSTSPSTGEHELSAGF

[3] = biological target: Cholecystokinin CCK2 (CCKB) (Homo sapiens, UniProt P32239); experiment: Eurofins binding screen
Dopamine D1 = Dopamine D1 (Homo sapiens, UniProt P21728); experiment: Eurofins binding screen
Dopamine D1, sequence (P21728 whole entry): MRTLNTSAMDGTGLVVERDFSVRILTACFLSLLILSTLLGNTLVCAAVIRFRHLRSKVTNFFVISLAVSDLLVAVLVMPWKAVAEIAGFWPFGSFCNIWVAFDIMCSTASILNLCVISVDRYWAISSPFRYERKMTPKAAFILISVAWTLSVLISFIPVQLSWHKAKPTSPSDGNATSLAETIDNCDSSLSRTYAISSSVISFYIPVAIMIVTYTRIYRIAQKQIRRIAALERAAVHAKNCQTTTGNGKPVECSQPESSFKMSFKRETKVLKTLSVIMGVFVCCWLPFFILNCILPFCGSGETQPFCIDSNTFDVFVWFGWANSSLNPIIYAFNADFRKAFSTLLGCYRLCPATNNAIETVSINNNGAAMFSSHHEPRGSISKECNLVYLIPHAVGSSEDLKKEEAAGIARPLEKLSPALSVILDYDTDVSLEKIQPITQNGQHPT

Galanin GAL1 = Galanin GAL1 (Homo sapiens, UniProt P47211); experiment: Eurofins binding screen
Galanin GAL2 = Galanin GAL2 (Homo sapiens, UniProt O43603); experiment: Eurofins binding screen
Histamine H1 = Histamine H1 (Homo sapiens, UniProt P35367); experiment: Eurofins binding screen
Histamine H2 = Histamine H2 (Homo sapiens, UniProt P25021); experiment: Eurofins binding screen
Muscarinic M1 = Muscarinic M1 (Homo sapiens, UniProt P11229); experiment: Eurofins binding screen
Muscarinic M1, sequence (P11229 whole entry): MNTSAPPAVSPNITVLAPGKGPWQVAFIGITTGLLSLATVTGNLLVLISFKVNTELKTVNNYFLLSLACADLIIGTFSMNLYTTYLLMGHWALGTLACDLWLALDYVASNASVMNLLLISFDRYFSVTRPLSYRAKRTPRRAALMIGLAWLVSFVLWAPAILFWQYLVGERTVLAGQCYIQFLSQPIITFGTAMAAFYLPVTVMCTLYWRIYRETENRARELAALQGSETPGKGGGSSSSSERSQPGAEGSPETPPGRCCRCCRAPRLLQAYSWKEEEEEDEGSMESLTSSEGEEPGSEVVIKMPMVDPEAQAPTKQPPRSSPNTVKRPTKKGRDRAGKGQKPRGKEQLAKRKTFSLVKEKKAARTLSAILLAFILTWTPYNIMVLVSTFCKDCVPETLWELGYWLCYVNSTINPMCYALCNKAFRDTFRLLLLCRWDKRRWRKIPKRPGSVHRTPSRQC

Muscarinic M5 = Muscarinic M5 (Homo sapiens, UniProt P08912); experiment: Eurofins binding screen
Neurokinin NK2 = Neurokinin NK2 (Homo sapiens, UniProt P21452); experiment: Eurofins binding screen
Neuropeptide Y Y1 = Neuropeptide Y Y1 (Homo sapiens, UniProt P25929); experiment: Eurofins binding screen
Opioid delta2 (DOP) = Opioid delta2 (DOP) (Homo sapiens, UniProt P41143); experiment: Eurofins binding screen
NOP (ORL1) = NOP (ORL1) (Homo sapiens, UniProt P41146); experiment: Eurofins binding screen
Neurotensin NTS1 (NT1) = Neurotensin NTS1 (NT1) (Homo sapiens, UniProt P30989); experiment: Eurofins binding screen
Prostanoid EP2 = Prostanoid EP2 (Homo sapiens, UniProt P43116); experiment: Eurofins binding screen
Purinergic P2Y = experiment: Eurofins binding screen; conditions: 10 µM
PAC1 - PACAP = PAC1 - PACAP (Homo sapiens, UniProt P41586); experiment: Eurofins binding screen
Serotonin 5-HT2B = Serotonin 5-HT2B (Homo sapiens, UniProt P41595); experiment: Eurofins binding screen
Serotonin 5-HT5a = Serotonin 5-HT5a (Homo sapiens, UniProt P47898); experiment: Eurofins binding screen
Serotonin 5-HT7 = Serotonin 5-HT7 (Homo sapiens, UniProt P34969); experiment: Eurofins binding screen
Serotonin 5-HT7, sequence (P34969 whole entry): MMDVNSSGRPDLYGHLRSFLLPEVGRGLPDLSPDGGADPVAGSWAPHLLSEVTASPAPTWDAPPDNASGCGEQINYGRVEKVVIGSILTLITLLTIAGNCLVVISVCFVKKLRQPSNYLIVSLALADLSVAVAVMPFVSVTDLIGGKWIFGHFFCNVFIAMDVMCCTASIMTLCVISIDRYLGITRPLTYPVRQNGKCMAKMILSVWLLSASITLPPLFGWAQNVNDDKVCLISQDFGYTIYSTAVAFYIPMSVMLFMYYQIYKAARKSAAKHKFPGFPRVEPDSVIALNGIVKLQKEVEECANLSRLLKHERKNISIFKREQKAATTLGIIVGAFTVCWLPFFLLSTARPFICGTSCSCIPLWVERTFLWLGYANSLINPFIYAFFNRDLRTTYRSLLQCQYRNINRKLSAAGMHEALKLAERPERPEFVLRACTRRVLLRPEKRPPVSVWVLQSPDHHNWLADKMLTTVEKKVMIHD

Calcium channels Ca2+-L = experiment: Eurofins binding screen; conditions: 10 µM
Potassium channels SKCa = experiment: Eurofins binding screen; conditions: 10 µM
[4] = tested on: Sodium channels Na+-site2; experiment: Eurofins binding screen; conditions: 10 µM
Purinergic channels P2X = experiment: Eurofins binding screen; conditions: 10 µM
Dopamine transporter DAT = Dopamine transporter DAT (Homo sapiens, UniProt Q01959); experiment: Eurofins binding screen
Dopamine transporter DAT, sequence (Q01959 whole entry): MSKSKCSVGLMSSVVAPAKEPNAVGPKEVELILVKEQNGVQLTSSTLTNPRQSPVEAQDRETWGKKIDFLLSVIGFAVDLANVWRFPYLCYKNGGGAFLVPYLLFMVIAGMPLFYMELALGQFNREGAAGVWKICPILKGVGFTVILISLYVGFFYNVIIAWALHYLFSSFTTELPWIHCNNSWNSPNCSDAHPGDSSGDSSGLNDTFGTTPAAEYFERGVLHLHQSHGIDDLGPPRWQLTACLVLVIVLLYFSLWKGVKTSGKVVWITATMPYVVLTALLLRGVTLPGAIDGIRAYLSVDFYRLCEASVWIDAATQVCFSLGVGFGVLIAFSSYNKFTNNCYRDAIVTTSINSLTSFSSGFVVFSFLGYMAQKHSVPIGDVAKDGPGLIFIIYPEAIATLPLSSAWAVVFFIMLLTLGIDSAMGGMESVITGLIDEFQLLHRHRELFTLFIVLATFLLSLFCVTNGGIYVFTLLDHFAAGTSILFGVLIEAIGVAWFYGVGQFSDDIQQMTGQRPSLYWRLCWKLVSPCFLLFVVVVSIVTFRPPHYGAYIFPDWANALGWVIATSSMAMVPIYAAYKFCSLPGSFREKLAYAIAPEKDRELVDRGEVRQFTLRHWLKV

TNF-alpha = experiment: Eurofins binding screen; conditions: 10 µM
Cl- channel = experiment: Eurofins binding screen; conditions: 10 µM
Glutamate PCP = experiment: Eurofins binding screen; conditions: 10 µM
Kinase PDGF = experiment: Eurofins binding screen; conditions: 10 µM
[5] = biological target: PR (progesterone receptor) (Homo sapiens, UniProt P06401); experiment: Eurofins binding screen
PR (progesterone receptor), sequence (P06401 whole entry): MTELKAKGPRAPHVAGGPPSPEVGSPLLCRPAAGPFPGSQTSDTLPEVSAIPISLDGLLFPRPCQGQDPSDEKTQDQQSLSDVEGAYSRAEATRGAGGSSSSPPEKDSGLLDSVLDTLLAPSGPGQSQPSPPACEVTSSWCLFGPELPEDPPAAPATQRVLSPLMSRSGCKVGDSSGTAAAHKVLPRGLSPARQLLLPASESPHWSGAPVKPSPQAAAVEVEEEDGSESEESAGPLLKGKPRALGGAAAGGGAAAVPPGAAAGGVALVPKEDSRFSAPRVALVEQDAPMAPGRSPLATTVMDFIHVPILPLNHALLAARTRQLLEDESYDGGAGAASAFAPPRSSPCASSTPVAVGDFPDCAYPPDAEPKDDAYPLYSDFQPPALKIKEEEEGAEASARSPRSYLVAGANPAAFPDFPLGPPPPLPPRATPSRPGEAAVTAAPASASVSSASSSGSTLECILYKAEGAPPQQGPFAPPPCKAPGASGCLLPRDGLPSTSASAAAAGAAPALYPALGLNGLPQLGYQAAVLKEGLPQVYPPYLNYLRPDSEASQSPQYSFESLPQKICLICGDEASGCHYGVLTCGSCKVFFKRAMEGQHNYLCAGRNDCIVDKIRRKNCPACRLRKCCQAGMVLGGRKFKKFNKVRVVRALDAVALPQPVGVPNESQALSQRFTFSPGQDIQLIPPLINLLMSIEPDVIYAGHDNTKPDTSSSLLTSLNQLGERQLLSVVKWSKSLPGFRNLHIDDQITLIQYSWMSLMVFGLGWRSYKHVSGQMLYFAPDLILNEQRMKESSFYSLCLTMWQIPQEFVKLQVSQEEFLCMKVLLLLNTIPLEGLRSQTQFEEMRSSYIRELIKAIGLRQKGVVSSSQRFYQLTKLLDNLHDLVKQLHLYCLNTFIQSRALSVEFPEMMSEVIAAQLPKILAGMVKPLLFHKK

[6] = read-out: Percent inhibition of control specific binding

COc1ccc(CO[C@H]2CC[C@@]3(C)C(=CC[C@H]4[C@@H]5CC[C@H](C(C)=O)[C@@]5(C)CC[C@@H]43)C2)cc1 [AEF0117, 3β-(4-methoxybenzyloxy)pregn-5-en-20-one]
THC's effects on food intake (mice [1]): inhibited | % Inhibition (mice [1]; Increase in food intake): 100% | ID50 (mice [1]; Increase in food intake): 0.015 mg/kg | ID100 (mice [1]; Increase in food intake): 0.05 mg/kg | Overall effect: precipitated withdrawal in THC-dependent mice (mice [2]): No | inhibition at 10 µM (Adenosine A2A; [6]): -3% | Percent inhibition of control specific binding (Adrenergic alpha1): -5% | inhibition at 10 µM (Adrenergic beta2; [6]): 4% | inhibition at 10 µM (Adrenergic beta1; [6]): 3% | inhibition at 10 µM (Angiotensin-II AT2; [6]): -8% | Percent inhibition of control specific binding (Bombesin BB): 12% | inhibition at 10 µM (Cannabinoid CB1; [6]): 11% | inhibition at 10 µM (Cannabinoid CB2; [6]): -2% | inhibition at 10 µM (Chemokines CCR1; [6]): 5% | inhibition at 10 µM [3, 6]: -35% | inhibition at 10 µM (Dopamine D1; [6]): -12% | inhibition at 10 µM (Galanin GAL1; [6]): -4% | inhibition at 10 µM (Galanin GAL2; [6]): -9% | inhibition at 10 µM (Histamine H1; [6]): 4% | inhibition at 10 µM (Histamine H2; [6]): 3% | inhibition at 10 µM (Muscarinic M1; [6]): -14% | inhibition at 10 µM (Muscarinic M5; [6]): -5% | inhibition at 10 µM (Neurokinin NK2; [6]): -28% | inhibition at 10 µM (Neuropeptide Y Y1; [6]): -9% | inhibition at 10 µM (Opioid delta2 (DOP); [6]): -4% | inhibition at 10 µM (NOP (ORL1); [6]): -7% | inhibition at 10 µM (Neurotensin NTS1 (NT1); [6]): -14% | inhibition at 10 µM (Prostanoid EP2; [6]): 27% | Percent inhibition of control specific binding (Purinergic P2Y): 16% | inhibition at 10 µM (PAC1 - PACAP; [6]): 4% | inhibition at 10 µM (Serotonin 5-HT2B; [6]): -15% | inhibition at 10 µM (Serotonin 5-HT5a; [6]): 1% | inhibition at 10 µM (Serotonin 5-HT7; [6]): -1% | Percent inhibition of control specific binding (Calcium channels Ca2+-L): -1% | Percent inhibition of control specific binding (Potassium channels SKCa): 12% | Percent inhibition of control specific binding [4]: 5% | Percent inhibition of control specific binding (Purinergic channels P2X): -29% | inhibition at 10 µM (Dopamine transporter DAT; [6]): 0% | Percent inhibition of control specific binding (TNF-alpha): -5% | Percent inhibition of control specific binding (Cl- channel): -4% | Percent inhibition of control specific binding (Glutamate PCP): 2% | Percent inhibition of control specific binding (Kinase PDGF): -8% | inhibition at 10 µM [5, 6]: 29%

CC(=O)[C@H]1CC[C@H]2[C@@H]3CC=C4C[C@@H](O)CC[C@]4(C)[C@H]3CC[C@]12C [pregnenolone, reference compound]
Percent inhibition of control specific binding (Adenosine A2A; 10 µM): -1% | Percent inhibition of control specific binding (Adrenergic alpha1): 1% | Percent inhibition of control specific binding (Adrenergic beta2; 10 µM): -5% | Percent inhibition of control specific binding (Adrenergic beta1; 10 µM): 4% | Percent inhibition of control specific binding (Angiotensin-II AT2; 10 µM): -18% | Percent inhibition of control specific binding (Bombesin BB): -18% | Percent inhibition of control specific binding (Cannabinoid CB1; 10 µM): 10% | Percent inhibition of control specific binding (Cannabinoid CB2; 10 µM): -19% | Percent inhibition of control specific binding (Chemokines CCR1; 10 µM): -10% | Percent inhibition of control specific binding ([3]; 10 µM): -38% | Percent inhibition of control specific binding (Dopamine D1; 10 µM): -8% | Percent inhibition of control specific binding (Galanin GAL1; 10 µM): -16% | Percent inhibition of control specific binding (Galanin GAL2; 10 µM): 1% | Percent inhibition of control specific binding (Histamine H1; 10 µM): 0% | Percent inhibition of control specific binding (Histamine H2; 10 µM): 9% | Percent inhibition of control specific binding (Muscarinic M1; 10 µM): -14% | Percent inhibition of control specific binding (Muscarinic M5; 10 µM): 8% | Percent inhibition of control specific binding (Neurokinin NK2; 10 µM): -1% | Percent inhibition of control specific binding (Neuropeptide Y Y1; 10 µM): -11% | Percent inhibition of control specific binding (Opioid delta2 (DOP); 10 µM): 9% | Percent inhibition of control specific binding (NOP (ORL1); 10 µM): 2% | Percent inhibition of control specific binding (Neurotensin NTS1 (NT1); 10 µM): -19% | Percent inhibition of control specific binding (Prostanoid EP2; 10 µM): 24% | Percent inhibition of control specific binding (Purinergic P2Y): -3% | Percent inhibition of control specific binding (PAC1 - PACAP; 10 µM): -25% | Percent inhibition of control specific binding (Serotonin 5-HT2B; 10 µM): -38% | Percent inhibition of control specific binding (Serotonin 5-HT5a; 10 µM): 11% | Percent inhibition of control specific binding (Serotonin 5-HT7; 10 µM): 11% | Percent inhibition of control specific binding (Calcium channels Ca2+-L): -19% | Percent inhibition of control specific binding (Potassium channels SKCa): -8% | Percent inhibition of control specific binding [4]: 23% | Percent inhibition of control specific binding (Purinergic channels P2X): 13% | Percent inhibition of control specific binding (Dopamine transporter DAT; 10 µM): -12% | Percent inhibition of control specific binding (TNF-alpha): 4% | Percent inhibition of control specific binding (Cl- channel): 29% | Percent inhibition of control specific binding (Glutamate PCP): 5% | Percent inhibition of control specific binding (Kinase PDGF): -15% | Percent inhibition of control specific binding ([5]; 10 µM): > 80% and 87%
